Source: patent EP0519427A2, “N-substituted-3-iodopropiolamide, production and use thereof” (priority 1991, dated 1992)

Columns and labels:
Format in all cases: cell-based
[1] = tested on: Aspergillus niger IFO-4407; test: Antibacterial and antifungal activity, paper disc method; details: IFO4407, paper disc d=8 mm dipped in 1,000 µg/ml solution, SDA medium, read-out: diameter of the growth inhibition circle, Asp.(IFO-4407)
Method: (§1) Antibacterial and antifungal activity tests for various bacteria and fungi were conducted. The tests were carried out by the conventional paper disc method. That is, a paper disc (d=8 mm) was dipped in aqueous or methanol solution of the compound of the present invention (concentration : 1,000 µg/ml), then dried and used.
(§2) As bacteria to be tested, • ① Staphylococcus aureus IFO-12732 [hereinafter abbreviated to Sta.] • ② Bacillus subtilis IFO-13719 [Bac.] • ③ Escherichia coli IFO-3301 [Esc.] were used. As yeast to be tested, • ④ Saccharomyces cerevisiae IFO-0210 [Sac.] • ⑤ Candida albicans IFO-0583 [Can.] were used. As fungi to be tested, • ⑥ Aspergillus niger IFO-4407 [Asp.] • ⑦ Penicillium citrinum IFO-7784 [Pen.] • ⑧ Tyromyces palustris IFO-30339 [Tyr.] • ⑨ Coriolus versicolor IFO-30340 [Cor.] were used. Among the above fungi, Tyr. and Cor. are wood rot fungi.
(§3) As the test media, agar media shown below were used. That is, TSA (Trypticase Soy Agar) medium was used for Sta., Bac. and Esc.; YNB (Yeast Nitrogen Base) agar medium was used for Sac. and Can.; SDA (Sabouraud Dextrose Agar) medium was used for Asp. and Pen.; and PDA (Potato Dextrose Agar) medium was used for Try. and Cor.
(§4) The determination of antibacterial and antifungal effectiveness was carried out by measuring the diameter of the growth inhibition circle generated on the circumference of the paper disc. The indication of effectiveness is given as follows: -: no growth inhibition circle was observed. +: diameter of the growth inhibition circle was 9 - 20 mm ++: diameter of the growth inhibition circle was 21 - 40 mm +++: diameter of the growth inhibition circle was 41 mm or more

[2] = tested on: Bacillus subtilis IFO-13719; test: as above; details: paper disc d=8 mm dipped in 1,000 µg/ml solution, TSA medium; for zone of inhibition at 1000 µg/mL: Bacillus subtilis, IFO13719, read-out: diameter of the growth inhibition circle, Bac.(IFO-13719)
Method: as §1, §2, §3, §4

[3] = tested on: Escherichia coli IFO-3301; test: as above; details: paper disc d=8 mm dipped in 1,000 µg/ml solution, TSA medium; for zone of inhibition at 1000 µg/mL: Escherichia coli, IFO3301, read-out: diameter of the growth inhibition circle, Esc.(IFO-3301)
Method: as §1, §2, §3, §4

[4] = tested on: Saccharomyces cerevisiae IFO-0210; test: as above; details: IFO0210, paper disc d=8 mm dipped in 1,000 µg/ml solution, YNB agar medium, read-out: diameter of the growth inhibition circle, Sac.(IFO-0210)
Method: as §1, §2, §3, §4

[5] = tested on: Aspergillus niger van Tieghem IFO 6341; test: Fungicide activity for wood fungicide (rating of fungi growth on treated wood); details: beech specimens dipped 3 min in fungicide solution, 4 weeks culture; rating 0 (no growth) to 3; mean of 6 specimens
Method: (§5) This test was conducted according to Specification No.2 of Japan Wood Preserving Association, enacted in 1979 and titled "Test methods of fungicide activity for wood fungicide".
(§6) • ① Aspergillus niger van Tieghem IFO 6341 = ATCC 6275 • ② Penicillium funiculosum Thom (formerly : Penicillium luteum Zukal) IFO 6345 = ATCC 9644 • ③ Rhizopus javanicus Takeda (formerly : Rhizopus nigricans Ehrenberg S.N. 32) IFO 6354 • ④ Aureobasidium pullulans (de Bary) Arnaud IFO 6353 = IAM (H. Iizuka, F-24) • ⑤ Gliocladium virens Miller, Gidden & Fosteb IFO 6355 = ATCC 9645 (formerly : Trichoderma viride, T.I.)
(§7) The fungi ① , ② , ③ and ⑤ are classified as fungi imperfecti, and the fungus ④ as blue stain fungus.
(§8) The Culture medium comprised the potato-sap agar culture medium (specified in the Japan Industrial Standard (JIS) Z 2911- 1960) of 50 ml, put in the conical flask of 100 ml, sterilized by steam at 1.4-1.6 kgf/cm² .G (137.2-156.8 KPa) for 30 minutes.
(§9) The fungi to be used were inoculated into the culture medium specified in the previous section and were cultured at 26 ± 2 °C under the relative humidity of 70-80 % for two weeks.
(§10) The potato sap of 50 ml, sterilized, cooled to room temperature and to which dioctyl sodium sulfosuccinate, a wetting agent, was added so as to become 0.005 %, was dropped to the fully breeding fungi layer, and was agitated with a platinum spatula in such a way that the spore was torn off. The resulting liquid filtered by sterilized gauze was the spore suspension.
(§11) 3-5-1 A Petri dish measured 90-100 mm in diameter and 20 mm in height.
(§12) 3-5-2 Agar liquid (which has no nutrients) of 2 % sterilized by steam was dropped onto the Petri dish sterilized by dry heat, and then was solidified.
(§13) 3-5-3 Three mm diameter sterilized glass bars or plastic nets made of polypropylene, etc. were placed to prevent the test specimens from touching with agar directly.
(§14) 3-6-1 The type of trees for wood specimens was beech. The cross section was of grain face, and the dimension was 20 mm wide 3 mm thick and 50 mm long.
(§15) 3-6-2 Wood specimens were supplied with nutrients in such a way that they were dipped into the potato-sap (the one in the section 3-2, but agar was not added) for 3 minutes.
(§16) 3-6-3 Nutrient-supplied wood specimens, after drying at 60 °C, were used for testing immediately. They were temporarily stored at 0 °C, but they were served to tests as soon as possible.
(§17) The test specimens were of two types, treated and untreated speciments. The treated specimens referred to the one treated with fungicide. The untreated specimens were of two types, the one really untreated and the other treated with solvent only.
(§18) 3-7-2-1 Nutrients-supplied wood specimens were dried at 60 ± 2 °C, and then their weights (W₀) were measured. Test specimens of 10-20 pieces were piled up in a one liter beaker in such a way that two specimens constant space apart from each other were alternately put on the other two specimens also constant space apart from each other. On the top of the two specimens, a weight was placed. Through the test specimens thus arranged, the fungicide solution was introduced. The level of the fungicide solution was one centimeter above the top specimens. The test specimens were dipped for three minutes after the fungicide solution introduction.
(§19) After finishing dipping, the test specimens were wiped softly, and then the weights (W₁) were measured immediately. As control experiment, the same procedure as the above was done using solvent without fungicide.
(§20) 3-7-2-2 The amounts of solution pick-up and fungicide pick-up were calculated with the following equations: The amount of solution absorption: RL = W₁ - W₀ [formula] The amount of fungicide absorption: Rc = RL × fungicide concentration [formula] 3-7-2-3 Wood specimens treated were placed without contacting each other, then were air-dried for two days, and then served as the treated test specimens. […]

[6] = tested on: Aureobasidium pullulans (de Bary) Arnaud IFO 6353; test: as above; details: beech specimens dipped 3 min in fungicide solution, 4 weeks culture; rating 0 (no growth) to 3; mean of 6 specimens
Method: as §5, §6, §7, §8, §9, §10, §11, §12, §13, §14, §15, §16, §17, §18, §19, §20

[7] = tested on: Gliocladium virens Miller, Gidden & Fosteb IFO 6355; test: as above; details: beech specimens dipped 3 min in fungicide solution, 4 weeks culture; rating 0 (no growth) to 3; mean of 6 specimens
Method: as §5, §6, §7, §8, §9, §10, §11, §12, §13, §14, §15, §16, §17, §18, §19, §20

[8] = tested on: Penicillium funiculosum Thom IFO 6345; test: as above; details: beech specimens dipped 3 min in fungicide solution, 4 weeks culture; rating 0 (no growth) to 3; mean of 6 specimens
Method: as §5, §6, §7, §8, §9, §10, §11, §12, §13, §14, §15, §16, §17, §18, §19, §20

[9] = tested on: Rhizopus javanicus Takeda IFO 6354; test: as above; details: beech specimens dipped 3 min in fungicide solution, 4 weeks culture; rating 0 (no growth) to 3; mean of 6 specimens
Method: as §5, §6, §7, §8, §9, §10, §11, §12, §13, §14, §15, §16, §17, §18, §19, §20

Structure (SMILES)	zone of inhibition at 1000 µg/mL [1] [mm]	zone of inhibition at 1000 µg/mL [2] [mm]	zone of inhibition at 1000 µg/mL [3] [mm]	zone of inhibition at 1000 µg/mL [4] [mm]	Average rating value, A₁ : Aspergillus Niger (IFO 6341) [5]	Average rating value, A₄ : Aureobasidium pullulans (IFO 6353) [6]	Average rating value, A₅ : Gliocladium virens (IFO 6355) [7]	Average rating value, A₂ : Penicillium funiculosum (IFO 6345) [8]	Average rating value, A₃ : Rhizopus javanicus (IFO 6354) [9]	diameter of the growth inhibition circle, Esc.(IFO-3301) [3]	diameter of the growth inhibition circle, Bac.(IFO-13719) [2]
CC(C)(C)NC(=O)C#CI [Example 1, N-(tert-Butyl)-3-iodopropiolamide]	21 to 40	9 to 20	9 to 20	21 to 40	0.0	0.0	0.0	0.0	2.0		
CCCCCCCCCCNC(=O)C#CI [Example 2, N-(n-Decyl)-3-iodopropiolamide]	9 to 20	9 to 20		9 to 20	3.0	0.0	1.3	2.0	3.0	-	
CCCCNC(=O)C#CI [Example 4, N-(n-Butyl)-3-iodopropiolamide]	21 to 40	9 to 20	9 to 20	21 to 40	0.0	0.0	1.0	0.0	0.0		
CCC(C)NC(=O)C#CI (stereo not drawn) [Example 5, N-(sec-Butyl)-3-iodopropiolamide]	21 to 40	9 to 20	9 to 20	21 to 40	0.0	0.0	1.3	0.0	3.0		
CC(C)CNC(=O)C#CI [Example 6, N-Isobutyl-3-iodopropiolamide]	21 to 40	21 to 40		21 to 40	0.0	0.0	0.0	0.0	3.0	-	
CCCCCNC(=O)C#CI [Example 7, N-(n-Pentyl)-3-iodopropiolamide]	21 to 40	9 to 20	9 to 20	21 to 40	0.2	0.0	1.8	0.2	3.0		
CCCCCCNC(=O)C#CI [Example 8, N-(n-Hexyl)-3-iodopropiolamide]	21 to 40	9 to 20	9 to 20	21 to 40	0.3	0.0	0.2	0.0	3.0		
CCCCCCCNC(=O)C#CI [Example 9, N-(n-Heptyl)-3-iodopropiolamide]	21 to 40	9 to 20		21 to 40	1.7	0.3	1.5	1.0	3.0	-	
CCCCCCCCNC(=O)C#CI [Example 10, N-(n-Octyl)-3-iodopropiolamide]	9 to 20			21 to 40	2.7	0.0	2.2	0.3	3.0	-	-
CCCCCCCCCNC(=O)C#CI [Example 11, N-(n-Nonyl)-3-iodopropiolamide]	9 to 20			9 to 20	3.0	1.7	2.8	1.8	3.0	-	-
